# Measured values as given in paper PMC3365113, “Exploiting Ligand-Protein Conjugates to Monitor Ligand-Receptor Interactions” (PLoS ONE, 2012).
# Columns and labels:
# [1] = biological target: T1, SNAP-eDHFR WT (Escherichia coli, UniProt P0ABQ4); assay: biochemical
# [2] = biological target: SNAP-eDHFR L54G (Escherichia coli, UniProt P0ABQ4, L54G); assay: biochemical; assay type: binding
# [3] = biological target: T1, SNAP-eDHFR WT; assay: biochemical; assay type: binding
# [4] = biological target: SNAP-eDHFR L54I (Escherichia coli, UniProt P0ABQ4, L54I); assay: biochemical; assay type: binding
# [5] = biological target: T2, PDE6D (Homo sapiens, UniProt O43924); assay: Cell imaging assay in fixed U2OS cells; assay type: binding; settings: 100 nM atorvastatin-SNAP-EGFP
# T2 construct: expressed in transfected cells; host or cells: U2OS
# Description: (§1) Finally, we developed a binding assay applicable to fixed cells. Such an assay is desirable if the protein to be analyzed is insoluble or unstable in extracts. In this assay (Figure 1B, 7A), the epitope-tagged receptor protein is over-expressed in mammalian cells by transient transfection. The cells are fixed with paraformaldehyde and permeabilized with nonionic detergent. The expression of the receptor protein is then confirmed by visualization with the anti-epitope tag antibody conjugated with a fluorophore using immunofluorescence microscopy. In parallel, the ligand-protein interaction is examined with the aid of BG-derivatized ligand conjugated to EGFP via SNAP-tag. […] We evaluated the generality of this method using other previously validated drug-protein interactions (PDE6D-atorvastatin, PTK2B-purvalanol B, and FYN-dasatinib). Binding of all three pairs was detected with this method (Figure S3).
# (§2) Supplementary file pone.0037598.s003.tif: Figure S3 Cell imaging assay using validated drug-receptor pairs. (A) U2OS cells were transfected with a plasmid which express V5 tagged PDE6D. One day after transfection, cells were fixed with 4% paraformaldehyde, and permeabilized with 0.1% Tritin X-100. After washing, the cells were incubated with anti-V5-antibody conjugated with FITC or 100 nM atorvastatin-SNAP-EGFP. Fluorescence images (GFP filter) were taken within 30 min after washing of the cells. (B) (C) Cell imaging assay using pairs of purvalanol B-PTK2B and dasatinib-FYN, respectively. (TIF) Click here for additional data file.
# [6] = biological target: T3, FYN (Homo sapiens, UniProt P06241); assay: Cell imaging assay in fixed U2OS cells; assay type: binding; settings: ligand as SNAP-EGFP conjugate
# T3 construct: expressed in transfected cells; host or cells: U2OS
# Description: as §1, §2
# [7] = biological target: T4, SNAP-ORP7 (Homo sapiens, UniProt Q9BZF2); assay type: binding; settings: HEK293 cell extract, free erlotinib 10 µM
# T4 construct: strep-tag (N); made in house; host or cells: HEK293 (suspension HEK-293E), transient transfection, Strep-tactin purified
# T4 sequence (Q9BZF2 1-842): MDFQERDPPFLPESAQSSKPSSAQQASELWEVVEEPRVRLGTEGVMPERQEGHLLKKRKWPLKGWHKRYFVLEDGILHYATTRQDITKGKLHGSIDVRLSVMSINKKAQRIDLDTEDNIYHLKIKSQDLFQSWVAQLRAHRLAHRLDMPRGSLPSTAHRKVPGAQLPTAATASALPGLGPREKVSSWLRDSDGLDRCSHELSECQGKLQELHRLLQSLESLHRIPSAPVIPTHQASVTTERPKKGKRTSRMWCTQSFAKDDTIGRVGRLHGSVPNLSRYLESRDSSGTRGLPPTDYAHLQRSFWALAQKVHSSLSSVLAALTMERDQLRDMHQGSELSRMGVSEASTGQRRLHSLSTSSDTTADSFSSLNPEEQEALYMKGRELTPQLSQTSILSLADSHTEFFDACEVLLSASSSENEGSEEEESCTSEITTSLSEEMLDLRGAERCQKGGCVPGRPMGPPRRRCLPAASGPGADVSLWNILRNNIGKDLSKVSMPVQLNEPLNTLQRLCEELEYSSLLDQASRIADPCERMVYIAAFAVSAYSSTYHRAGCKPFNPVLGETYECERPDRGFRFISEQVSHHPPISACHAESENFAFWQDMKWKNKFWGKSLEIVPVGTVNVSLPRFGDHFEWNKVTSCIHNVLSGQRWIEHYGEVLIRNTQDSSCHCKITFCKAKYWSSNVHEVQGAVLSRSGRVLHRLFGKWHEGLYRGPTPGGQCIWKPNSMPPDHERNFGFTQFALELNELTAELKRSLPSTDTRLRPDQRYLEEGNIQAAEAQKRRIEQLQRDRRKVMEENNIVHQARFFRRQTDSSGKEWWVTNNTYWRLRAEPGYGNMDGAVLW
# [8] = biological target: T5, PTK2B (Homo sapiens, UniProt Q14289); assay: Cell imaging assay in fixed U2OS cells; assay type: binding; settings: ligand as SNAP-EGFP conjugate
# T5 construct: expressed in transfected cells; host or cells: U2OS
# Description: as §1, §2
# [9] = tested on: eDHFR (every eDHFR mutant); assay: SNAP-based TR-FRET competition assay using MTX and MTX-BG as competitors; assay type: binding, Escherichia coli; settings: MTX-BG vs MTX, 100 µM NADPH
molecule,measurement,setting,value
"COc1cc(NCc2ccc3nc(N)nc(N)c3c2C)cc(OC)c1OC [Trimetrexate, trimetrexate]",IC50,[1],0.27 ± 0.03 nM
same,Kd,[2],0.64 ± 0.04 nM
same,Kd,[3],0.15 ± 0.01 nM
same,Kd,[4],0.1 ± 0.01 nM
CC1(C)N=C(N)N=C(N)N1OCCCOc1cc(Cl)c(Cl)cc1Cl [WR99210],IC50,[1],54000 ± 16000 nM
same,Kd,[2],15000 ± 790 nM
same,Kd,[3],12000 ± 950 nM
same,Kd,[4],2600 ± 210 nM
CC(C)c1c(C(=O)Nc2ccccc2)c(-c2ccccc2)c(-c2ccc(F)cc2)n1CC[C@@H](O)C[C@@H](O)CC(=O)O [atorvastatin],"Binding detected by cell imaging, PDE6D",[5],detected
Cc1nc(Nc2ncc(C(=O)Nc3c(C)cccc3Cl)s2)cc(N2CCN(CCO)CC2)n1 [dasatinib],"Binding detected by cell imaging, FYN",[6],detected
C#Cc1cccc(Nc2ncnc3cc(OCCOC)c(OCCOC)cc23)c1 [erlotinib],Effect of free ligand on hetero-crosslinking product band,[7],no longer detected
CC(C)[C@H](CO)Nc1nc(Nc2ccc(C(=O)O)c(Cl)c2)c2ncn(C(C)C)c2n1 [purvalanol B],"Binding detected by cell imaging, PTK2B",[8],detected
methotrexate-BG [MTX-BG],Change of Kd values by derivatization of MTX with BG,[9],about 10 fold
